According to US6417210B1 (MOR-Research Applications Ltd., priority 1998, dated 2002):

Columns and labels:
baboons = conditions: induced by 3-nitropropionic acid, Palfi et al. 1997; cited from earlier work
[1] = tested on: patients suffering from advanced Parkinson's disease with severe levodopa-induced dyskinesias
Description: The patients were given optimal anti-parkinsonian drug treatment during the three months prior to the clinical trial. Duration of study was six weeks. First two weeks served to accumulate baseline data. Patients filled up dyskinesias diaries in which they marked at every waking hour whether involuntary movements were present and their severity (mild/moderate and severe). […] The dose was then increased to 25 mg, b.i.d. for additional four days (once in the morning and once in the early afternoon). The dose as then further increased to two 50 mg tablets (total of 100 mg. daily) which the patients took for three additional weeks. They continued to fill up their dyskinesias diaries throughout the trial period.

In the case of Nc1nc2ccc(OC(F)(F)F)cc2s1 [Riluzole, 2-amino-6-trifluoromethoxy benzothiazole], the Abnormal motor movement (baboons) is listed as “reduces various abnormal motor movement”, the Adverse effects ([1]; riluzole up to 50 mg b.i.d.) is listed as “no report of adverse-effects” and the Tolerability ([1]; riluzole up to 50 mg b.i.d.) is listed as “well-tolerated”. For the same compound, the “Efficacy of levodopa and other anti-parkinsonian drugs and total daily time spent in "on" periods” value ([1]; when patients took riluzole) was “no decrease” and the “Worsening of the parkinsonian signs and symptoms” value ([1]; when patients took riluzole) was “no worsening”.
